Assays:
[1] = design: species or system Cynomolgus monkeys; settings: cynomolgus monkey, in vivo, po, 50 mg/kg
Procedure: Cynomolgus monkeys were administered the formulation above at a dose of 0.25 mg/kg of rapamycin and the following serum concentrations were determined at the indicated time after dosing.
Cynomolgus monkeys were administered the above formulation at a dose of 50 mg/kg of rapamycin and the following serum concentrations were determined at the indicated time after dosing.
Cynomolgus monkeys were administered this second comparative formulation at a dose of 50 mg/kg of rapamycin and the following serum concentrations were determined at the indicated time after dosing.

transplant rejection = settings: useful in preventing transplant rejection; cited from earlier work
[2] = tested on: smooth muscle cell proliferation and intimal thickening; settings: following vascular injury; Morris 1992; cited from earlier work
[3] = cited from earlier work
[4] = tested on: systemic lupus erythematosus; settings: U.S. Pat. No. 5,078,999; cited from earlier work
adjuvant arthritis = settings: model for rheumatoid arthritis; Martel 1977; cited from earlier work
pulmonary inflammation = settings: U.S. Pat. No. 5,080,899; cited from earlier work
thymocyte = settings: in vitro; cited from earlier work
Candida albicans = settings: cited from earlier work
Microsporum gypseum = settings: cited from earlier work
tumor = settings: in vivo; cited from earlier work
IgE-like antibodies = settings: Martel 1977; cited from earlier work
[5] = tested on: rejection in vivo in allograft transplantation; settings: Calne 1989; Morris and Meiser 1989; cited from earlier work
[6] = tested on: experimental allergic encephalomyelitis; settings: model for multiple sclerosis; Martel 1977; cited from earlier work
[7] = tested on: insulin dependent diabetes mellitus; settings: Fifth Int. Conf. Inflamm. Res. Assoc. 1990; cited from earlier work

SMILES | Rapamycin Concentration in Monkey Serum [1] | immunosuppressive effect (transplant rejection) | preventing or treating smooth muscle cell proliferation and intimal thickening [2] | activity in vivo [3] | preventing or treating systemic lupus erythematosus [4] | efficacy in adjuvant arthritis model (adjuvant arthritis) | preventing or treating pulmonary inflammation (pulmonary inflammation) | thymocyte proliferation (thymocyte) | effect on growth of fungi (Candida albicans) | effect on growth of fungi (Microsporum gypseum) | antitumor activity (tumor) | formation of IgE-like antibodies (IgE-like antibodies) | inhibiting rejection in vivo in allograft transplantation [5] | efficacy in experimental allergic encephalomyelitis model [6] | preventing or treating insulin dependent diabetes mellitus [7]
CO[C@H]1C[C@@H]2CC[C@@H](C)[C@@](O)(O2)C(=O)C(=O)N2CCCC[C@H]2C(=O)O[C@H]([C@H](C)C[C@@H]2CC[C@@H](O)[C@H](OC)C2)CC(=O)[C@H](C)/C=C(\C)[C@@H](O)[C@@H](OC)C(=O)[C@H](C)C[C@H](C)/C=C/C=C/C=C/1C [Comparative Example 2] | BDL (key: BDL: Below detection limit (detection limit = 0.006 μg/ml)) | – | – | – | – | – | – | – | – | – | – | – | – | – | –
C=CC[C@@H]1/C=C(\C)C[C@H](C)C[C@H](OC)[C@H]2O[C@@](O)(C(=O)C(=O)N3CCCC[C@H]3C(=O)O[C@H](/C(C)=C/[C@@H]3CC[C@@H](O)[C@H](OC)C3)[C@H](C)[C@@H](O)CC1=O)[C@H](C)C[C@@H]2OC [FK-506] | – | effective as immunosuppressive agents | – | – | – | – | – | – | – | – | – | – | – | – | –
CO[C@H]1C[C@@H]2CC[C@@H](C)[C@@](O)(O2)C(=O)C(=O)N2CCCC[C@H]2C(=O)O[C@H]([C@H](C)C[C@@H]2CC[C@@H](O)[C@H](OC)C2)CC(=O)[C@H](C)/C=C(\C)[C@@H](O)[C@@H](OC)C(=O)[C@H](C)C[C@H](C)/C=C/C=C/C=C/1C [Rapamycin, rapamycin] | – | immunosuppressive effects | useful in preventing or treating | immunosuppressive, antifungal and antiinflammatory activity in vivo | useful in preventing or treating | effective | useful in preventing or treating | inhibit thymocyte proliferation in vitro | adversely affects the growth of fungi | adversely affects the growth of fungi | antitumor activity | effectively inhibited | effectiveness of rapamycin in inhibiting rejection in vivo in allograft transplantation | effective | useful in preventing or treating

Reference: patent publication US5536729A, “Rapamycin formulations for oral administration” (priority 1994, dated 1996)
